According to ChEMBL document CHEMBL2439949, “Synthesis and structure-activity relationships of phenyl-substituted coumarins with anti-tubercular activity that target FadD32” (Bioorg Med Chem Lett, 2013):
Calls of active or inactive are those of the source. No cut-off for these calls is given here.

Assays:
[1] = tested on: Mycobacterium tuberculosis; test: Antimycobacterial activity against Mycobacterium tuberculosis expressing FadD32 E120G mutant at 125 uM after 7 days; type: functional, organism-based
[2] = tested on: Mycobacterium tuberculosis; test: Antimycobacterial activity against Mycobacterium tuberculosis expressing FadD32 E120G mutant after 7 days; type: functional

Row | Structure (SMILES) | Activity [1] | IC90 [2] [µM]
1 | CNC(=O)c1ccc(-c2c(C)cc3oc(=O)cc(-c4ccccc4)c3c2C)cc1 | inactive | 
2 | Cc1cc2oc(=O)cc(-c3ccccc3)c2c(C)c1-c1ccc(CN2CCCCC2)cc1 | inactive | 
3 | Cc1cc2oc(=O)cc(-c3ccccc3)c2c(C)c1-c1ccncc1 | inactive | 
4 | Cc1cc2oc(=O)cc(-c3ccccc3)c2c(C)c1-c1ccc(CO)cc1 | inactive | 
5 | Cc1cc2oc(=O)cc(-c3cccc([N+](=O)[O-])c3)c2c(C)c1-c1ccc(CN2CCOCC2)cc1 | inactive | 
6 | Cc1cc2oc(=O)cc(-c3ccccc3)c2c(C)c1-c1ccc(CNC2CCCCC2)cc1 | inactive | 32
7 | Cc1cc2oc(=O)cc(-c3ccccc3)c2c(C)c1-c1ccccc1Cl | inactive | 
8 | Cc1cc2oc(=O)cc(-c3ccc(N)cc3)c2c(C)c1-c1ccc(CN2CCOCC2)cc1 | inactive | 
9 | Cc1cc2oc(=O)cc(-c3ccccc3)c2c(C)c1-c1ccc(CN2CCOCC2)cc1 | inactive | 
10 | Cc1cc2oc(=O)cc(-c3cccnc3)c2c(C)c1-c1ccc(CN2CCOCC2)cc1 | inactive | 
11 | Cc1cc2oc(=O)cc(-c3ccccc3)c2c(C)c1-c1ccc(CN2CCN(C)CC2)cc1 | inactive | 
12 | Cc1cc(CO)ccc1-c1c(C)cc2oc(=O)cc(-c3ccccc3)c2c1C | inactive | 
13 | Cc1cc2oc(=O)cc(-c3ccccc3)c2c(C)c1-c1ccc(C(C)O)cc1 (stereo not given) | inactive | 
14 | CC(=O)Nc1cccc(-c2cc(=O)oc3cc(C)c(-c4ccc(CN5CCOCC5)cc4)c(C)c23)c1 | inactive | 
